Patent publication US20250276036A1, “COMPOSITION FOR THE INHIBITION OF NRF2 AND USES THEREOF IN CANCER THERAPY” (Sunshine Biopharma Inc., priority 2022, published 2025)

Experiments:
[1] = test system: Human Mammary Epithelial Cells (HMEC); test: Cell viability (CellTiter-Glo) after mRNA transfection, HMEC; format: cell-based; conditions: HMEC, 0, 3 and 9 ng mRNA per 1000 cells, 48 hours transfection
Protocol: (§1) The synthetic mRNA produced in Example 1 is transfected in cancer cells using the Lipofectamine MessengerMAX™ Transfection Reagent.
(§2) Human Mammary Epithelial Cells (HMEC), which are non-cancer cells were compared to MCF7 cancer cells. The HMEC cells and MCF7 cancer cells were transfected for 48 hours with 0, 0.3, 1, 3 and 9 ng of KEAP1 mRNA, or a control cLUC mRNA, per 1000 cells and their respective survival were compared. The cells viability was measured using the CellTiter-Glo® assay from Promega®. […] Now referring to FIG. 4, cell viability of MCF7 cells was affected by KEAP1 mRNA, but the viability of the HMEC cells was unaffected by KEAP1 mRNA.

[2] = test system: MCF7/MDR human breast adenocarcinoma cell line; test: Cell viability (CellTiter-Glo) after mRNA transfection, MCF7/MDR; format: cell-based; conditions: for % Cell survival: MCF7/MDR, 48 hours transfection (Example 3)
Protocol: (§3) The goal of these experiments is to evaluate the transfectability of various cell lines, as well as evaluate the role of KEAP1 as a tumor cells sensitizer, evaluate its role in decreasing the viability of tumor cells. The synthetic mRNA produced in Example 1, or the cLUC mRNA are transfected in cancer cells using the Lipofectamine MessengerMAX™ Transfection Reagent, ThermoFisher™, Cat No: LMRNA001. 0, 0.3, 1, 3 or 9 ng of either mRNA is used per 1000 cells.
(§4) MCF7 and MCF7/MDR human breast adenocarcinoma cell lines are transfected for 48 hours with 0, 0.3, 1, 3 and 9 ng of KEAP1 mRNA, or with 0, 0.3, 1, 3 and 9 ng of a control Cypridina luciferase (cLUC) (SEQ ID NO: 10) mRNA. The cells viability was measured using the CellTiter-Glo® assay from Promega®. KEAP1 mRNA specific effects on MCF7 and MCF7/MDR cells survival were observed when cells were transfected with 0, 0.3, 1, 3 and 9 ng of KEAP1 mRNA.
(§5) MCF7 and MCF7/MDR human breast adenocarcinoma cell lines are transfected for 48 hours with 0, 1 and 3 ng of KEAP1 mRNA, or with 0, 1 and 3 ng of a control Cypridina luciferase (cLUC) mRNA, per 1000 cells. The cells viability was measured using the CellTiter-Glo® assay from Promega®. In-cell Western analysis is used to detect the presence of KEAP1.

[3] = test system: MCF7 human breast adenocarcinoma cell line; test: Cell viability (CellTiter-Glo) after mRNA transfection, MCF7; format: cell-based
Protocol: as §3, §4, §5, §2

OVCAR3 epithelial cells = test: Cell viability (CellTiter-Glo) after mRNA transfection, OVCAR3; format: cell-based, human
Protocol: as §1
(§6) OVCAR3 epithelial cells isolated from malignant ascites of a patient with progressive adenocarcinoma of the ovary, and SUIT2 human pancreatic cancer cell lines are transfected for […] with 0, 0.3, 1, 3 and 9 ng of KEAP1 mRNA, or with 0, 0.3, 1, 3 and 9 ng of a control Cypridina luciferase (cLUC)(SEQ ID NO: 10) mRNA, per 1000 cells. The cells viability was measured using the CellTiter-Glo® assay from Promega®. In-cell Western analysis is used to detect the presence of KEAP1.

[4] = test system: SUIT2 human pancreatic cancer cell line; test: Cell viability (CellTiter-Glo) after mRNA transfection, SUIT2; format: cell-based; conditions: SUIT2, 0, 3 and 9 ng mRNA per 1000 cells
Protocol: as §1, §6

cLUC mRNA: control Cypridina luciferase (cLUC) (SEQ ID NO: 10) mRNA
% Cell survival [1]: Resistant | effect on cell survival / viability ([2]; MCF7/MDR, 0, 0.3, 1, 3 and 9 ng mRNA per 1000 cells, 48 hours (FIG. 2)): little effect on cell survival unless a large amount of 9 ng was transfected | % Cell survival ([2]; 1 ng mRNA per 1000 cells): 100% | % Cell survival ([2]; 3 ng mRNA per 1000 cells): 55% | effect on cell survival / viability ([3]; MCF7, 0, 0.3, 1, 3 and 9 ng mRNA per 1000 cells, 48 hours (FIG. 2)): little effect on cell survival unless a large amount of 9 ng was transfected | % Cell survival ([3]; MCF7, 1 ng mRNA per 1000 cells, 48 hours transfection (Example 3)): 100% | % Cell survival ([3]; MCF7, 3 ng mRNA per 1000 cells, 48 hours transfection (Example 3)): 55% | % Cell survival ([3]; MCF7, 3 ng mRNA per 1000 cells, 48 hours transfection (Example 4, Table 2)): 100% | % Cell survival ([3]; MCF7, 9 ng mRNA per 1000 cells, 48 hours transfection (Example 4, Table 2)): 55% | % Cell survival (OVCAR3 epithelial cells; OVCAR3, 3 ng mRNA per 1000 cells): 90% | % Cell survival (OVCAR3 epithelial cells; OVCAR3, 9 ng mRNA per 1000 cells): 80% | % Cell survival [4]: Resistant
